Test results from paper PMC9851200, “Multiparameter phenotypic screening for endogenous TFEB and TFE3 translocation identifies novel chemical series modulating lysosome function” (Autophagy, 2022).

Key:
Type in all cases: binding
[1] = biological target: kinases (KINOMEscan panel) (Homo sapiens, UniProt P42679)
[2] = biological target: kinases (KINOMEscan panel) (Homo sapiens, UniProt Q9H2G2)
[3] = biological target: kinases (KINOMEscan panel) (Homo sapiens, UniProt Q15208)
[4] = biological target: kinases (KINOMEscan panel) (Homo sapiens, UniProt Q9UEE5)
[5] = biological target: kinases (KINOMEscan panel) (Homo sapiens, UniProt P31152)
[6] = biological target: kinases (KINOMEscan panel) (Homo sapiens, UniProt P0C264)
[7] = biological target: kinases (KINOMEscan panel) (Homo sapiens, UniProt Q16659)
[8] = biological target: kinases (KINOMEscan panel) (Homo sapiens, UniProt P27361)
[9] = biological target: kinases (KINOMEscan panel) (Homo sapiens, UniProt Q9Y2K2)
[10] = biological target: kinases (KINOMEscan panel) (Homo sapiens, UniProt Q13188)
[11] = biological target: kinases (KINOMEscan panel) (Homo sapiens, UniProt O43283)
[12] = biological target: kinases (KINOMEscan panel) (Homo sapiens, UniProt Q32MK0)
[13] = biological target: kinases (KINOMEscan panel) (Homo sapiens, UniProt Q86UX6)
[14] = biological target: kinases (KINOMEscan panel) (Homo sapiens, UniProt Q13164)
[15] = biological target: kinases (KINOMEscan panel) (Homo sapiens, UniProt Q05397)
[16] = biological target: kinases (KINOMEscan panel) (Homo sapiens, UniProt Q15418)
[17] = biological target: kinases (KINOMEscan panel) (Homo sapiens, UniProt Q12852)
[18] = biological target: kinases (KINOMEscan panel) (Homo sapiens, UniProt Q15831)
[19] = biological target: kinases (KINOMEscan panel) (Homo sapiens, UniProt P23443)
[20] = biological target: kinases (KINOMEscan panel) (Homo sapiens, UniProt Q9H093)
[21] = biological target: kinases (KINOMEscan panel) (Homo sapiens, UniProt Q9NYL2)
[22] = biological target: kinases (KINOMEscan panel) (Homo sapiens, UniProt Q9NY57)
[23] = biological target: kinases (KINOMEscan panel) (Homo sapiens, UniProt Q9Y6E0)
[24] = biological target: kinases (KINOMEscan panel) (Homo sapiens, UniProt O60285)
[25] = biological target: kinases (KINOMEscan panel) (Homo sapiens, UniProt Q6P2M8)
[26] = biological target: kinases (KINOMEscan panel) (Homo sapiens, UniProt Q8IY84)
[27] = biological target: kinases (KINOMEscan panel) (Homo sapiens, UniProt Q99683)
[28] = biological target: kinases (KINOMEscan panel) (Homo sapiens, UniProt Q13882)
[29] = biological target: kinases (KINOMEscan panel) (Homo sapiens, UniProt P52564)
[30] = biological target: kinases (KINOMEscan panel) (Homo sapiens, UniProt P35968)
[31] = biological target: kinases (KINOMEscan panel) (Homo sapiens, UniProt P36507)
[32] = biological target: kinases (KINOMEscan panel) (Homo sapiens, UniProt P08581)
[33] = biological target: kinases (KINOMEscan panel) (Homo sapiens, UniProt O00506)
[34] = biological target: kinases (KINOMEscan panel) (Homo sapiens, UniProt O75676); settings: NEW KINOMEscan
[35] = biological target: kinases (KINOMEscan panel) (Homo sapiens, UniProt P46734)
[36] = biological target: kinases (KINOMEscan panel) (Homo sapiens, UniProt Q92918)
[37] = biological target: kinases (KINOMEscan panel) (Homo sapiens, UniProt Q13153)
[38] = biological target: kinases (KINOMEscan panel) (Homo sapiens, UniProt Q14289)
[39] = biological target: kinases (KINOMEscan panel) (Homo sapiens, UniProt Q13043)
[40] = biological target: kinases (KINOMEscan panel) (Homo sapiens, UniProt Q8TD08)
[41] = biological target: kinases (KINOMEscan panel) (Homo sapiens, UniProt P28482)

Sequence of kinases (KINOMEscan panel) (Homo sapiens, UniProt Q15418) (Q15418 whole entry): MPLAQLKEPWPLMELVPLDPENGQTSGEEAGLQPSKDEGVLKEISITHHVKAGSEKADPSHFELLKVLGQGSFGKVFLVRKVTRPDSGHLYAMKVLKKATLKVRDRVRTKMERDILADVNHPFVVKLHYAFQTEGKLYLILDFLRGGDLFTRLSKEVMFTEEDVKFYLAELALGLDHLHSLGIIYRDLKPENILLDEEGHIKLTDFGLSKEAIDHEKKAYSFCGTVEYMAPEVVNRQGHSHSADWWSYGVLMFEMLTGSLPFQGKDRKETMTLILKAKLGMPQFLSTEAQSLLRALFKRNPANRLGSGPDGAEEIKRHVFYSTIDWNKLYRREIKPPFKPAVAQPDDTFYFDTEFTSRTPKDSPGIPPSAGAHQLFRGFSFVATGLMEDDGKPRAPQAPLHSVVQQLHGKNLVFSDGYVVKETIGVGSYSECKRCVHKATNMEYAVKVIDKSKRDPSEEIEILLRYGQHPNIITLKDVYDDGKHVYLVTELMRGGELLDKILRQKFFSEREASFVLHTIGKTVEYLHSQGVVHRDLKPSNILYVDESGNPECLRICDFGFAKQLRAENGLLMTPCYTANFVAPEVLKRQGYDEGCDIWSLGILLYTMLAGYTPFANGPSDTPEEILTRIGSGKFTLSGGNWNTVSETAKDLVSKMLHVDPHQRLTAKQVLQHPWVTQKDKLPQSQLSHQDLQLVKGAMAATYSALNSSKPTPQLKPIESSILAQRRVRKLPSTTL
Sequence of kinases (KINOMEscan panel) (Homo sapiens, UniProt O75676) (O75676 whole entry): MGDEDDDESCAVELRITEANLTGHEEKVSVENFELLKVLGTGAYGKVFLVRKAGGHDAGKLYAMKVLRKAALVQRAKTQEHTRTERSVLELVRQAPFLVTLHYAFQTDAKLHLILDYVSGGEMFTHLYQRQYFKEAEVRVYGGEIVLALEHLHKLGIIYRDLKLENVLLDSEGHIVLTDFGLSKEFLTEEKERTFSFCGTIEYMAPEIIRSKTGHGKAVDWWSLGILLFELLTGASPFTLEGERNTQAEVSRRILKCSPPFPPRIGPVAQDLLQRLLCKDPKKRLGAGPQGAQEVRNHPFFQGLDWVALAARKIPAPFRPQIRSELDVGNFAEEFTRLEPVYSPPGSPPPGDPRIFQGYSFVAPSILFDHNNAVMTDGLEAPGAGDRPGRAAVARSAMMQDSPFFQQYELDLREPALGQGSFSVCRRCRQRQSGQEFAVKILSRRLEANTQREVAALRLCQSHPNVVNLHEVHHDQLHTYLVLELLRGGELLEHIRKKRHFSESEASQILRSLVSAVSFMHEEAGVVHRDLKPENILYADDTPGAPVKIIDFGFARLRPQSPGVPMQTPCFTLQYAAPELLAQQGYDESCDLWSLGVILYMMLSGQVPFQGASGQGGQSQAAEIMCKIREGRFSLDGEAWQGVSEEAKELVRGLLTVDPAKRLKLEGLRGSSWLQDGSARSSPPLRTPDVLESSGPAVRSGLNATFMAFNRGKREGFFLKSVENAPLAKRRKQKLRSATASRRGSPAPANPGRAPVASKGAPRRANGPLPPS
Sequence of kinases (KINOMEscan panel) (Homo sapiens, UniProt P52564) (P52564 whole entry): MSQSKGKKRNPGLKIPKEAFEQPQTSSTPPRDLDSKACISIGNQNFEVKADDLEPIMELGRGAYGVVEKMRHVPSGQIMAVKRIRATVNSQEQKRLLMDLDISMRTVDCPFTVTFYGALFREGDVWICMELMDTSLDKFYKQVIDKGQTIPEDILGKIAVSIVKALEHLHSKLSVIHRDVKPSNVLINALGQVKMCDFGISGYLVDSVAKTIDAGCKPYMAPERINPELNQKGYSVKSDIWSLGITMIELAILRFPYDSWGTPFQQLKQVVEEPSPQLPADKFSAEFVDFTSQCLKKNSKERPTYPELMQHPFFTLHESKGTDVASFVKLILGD
Sequence of kinases (KINOMEscan panel) (Homo sapiens, UniProt Q86UX6) (Q86UX6 whole entry): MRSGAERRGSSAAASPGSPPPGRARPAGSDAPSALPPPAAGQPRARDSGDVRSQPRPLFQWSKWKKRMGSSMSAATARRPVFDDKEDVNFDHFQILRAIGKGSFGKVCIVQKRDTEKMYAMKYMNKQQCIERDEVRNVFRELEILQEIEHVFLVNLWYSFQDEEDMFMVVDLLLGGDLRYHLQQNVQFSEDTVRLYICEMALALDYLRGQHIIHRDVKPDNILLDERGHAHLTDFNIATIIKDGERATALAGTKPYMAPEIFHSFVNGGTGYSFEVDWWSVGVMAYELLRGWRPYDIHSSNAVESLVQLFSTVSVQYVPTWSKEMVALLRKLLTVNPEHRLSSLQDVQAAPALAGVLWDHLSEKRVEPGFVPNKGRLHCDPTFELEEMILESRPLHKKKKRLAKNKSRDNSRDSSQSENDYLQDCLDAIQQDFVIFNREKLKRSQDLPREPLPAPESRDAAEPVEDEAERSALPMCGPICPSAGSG
Sequence of kinases (KINOMEscan panel) (Homo sapiens, UniProt Q9NY57) (Q9NY57 whole entry): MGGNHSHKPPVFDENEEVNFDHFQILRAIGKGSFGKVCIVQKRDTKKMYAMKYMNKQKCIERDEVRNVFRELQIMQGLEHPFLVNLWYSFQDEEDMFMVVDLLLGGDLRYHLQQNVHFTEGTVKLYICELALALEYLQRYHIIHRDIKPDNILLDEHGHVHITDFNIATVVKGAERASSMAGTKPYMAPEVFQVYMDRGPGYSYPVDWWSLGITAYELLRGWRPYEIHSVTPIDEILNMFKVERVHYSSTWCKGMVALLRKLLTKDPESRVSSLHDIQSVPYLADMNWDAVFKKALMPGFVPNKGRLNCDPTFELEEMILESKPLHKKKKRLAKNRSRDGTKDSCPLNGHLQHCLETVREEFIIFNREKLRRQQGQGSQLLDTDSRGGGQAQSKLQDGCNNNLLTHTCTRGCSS
Sequence of kinases (KINOMEscan panel) (Homo sapiens, UniProt P23443) (P23443 whole entry): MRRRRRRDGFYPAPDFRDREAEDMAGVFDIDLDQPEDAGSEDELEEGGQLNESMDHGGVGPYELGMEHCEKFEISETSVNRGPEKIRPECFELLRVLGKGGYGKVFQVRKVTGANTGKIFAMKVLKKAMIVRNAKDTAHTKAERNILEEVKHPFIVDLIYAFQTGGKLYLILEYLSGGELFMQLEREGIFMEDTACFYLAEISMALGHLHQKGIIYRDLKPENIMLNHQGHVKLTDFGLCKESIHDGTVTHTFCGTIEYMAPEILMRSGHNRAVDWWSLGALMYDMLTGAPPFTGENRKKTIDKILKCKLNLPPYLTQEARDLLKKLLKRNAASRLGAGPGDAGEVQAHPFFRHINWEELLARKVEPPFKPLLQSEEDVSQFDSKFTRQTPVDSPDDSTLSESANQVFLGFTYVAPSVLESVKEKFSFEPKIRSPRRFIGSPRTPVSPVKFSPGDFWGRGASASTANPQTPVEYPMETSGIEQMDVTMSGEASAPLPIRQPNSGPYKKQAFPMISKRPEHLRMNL
Sequence of kinases (KINOMEscan panel) (Homo sapiens, UniProt P31152) (P31152 whole entry): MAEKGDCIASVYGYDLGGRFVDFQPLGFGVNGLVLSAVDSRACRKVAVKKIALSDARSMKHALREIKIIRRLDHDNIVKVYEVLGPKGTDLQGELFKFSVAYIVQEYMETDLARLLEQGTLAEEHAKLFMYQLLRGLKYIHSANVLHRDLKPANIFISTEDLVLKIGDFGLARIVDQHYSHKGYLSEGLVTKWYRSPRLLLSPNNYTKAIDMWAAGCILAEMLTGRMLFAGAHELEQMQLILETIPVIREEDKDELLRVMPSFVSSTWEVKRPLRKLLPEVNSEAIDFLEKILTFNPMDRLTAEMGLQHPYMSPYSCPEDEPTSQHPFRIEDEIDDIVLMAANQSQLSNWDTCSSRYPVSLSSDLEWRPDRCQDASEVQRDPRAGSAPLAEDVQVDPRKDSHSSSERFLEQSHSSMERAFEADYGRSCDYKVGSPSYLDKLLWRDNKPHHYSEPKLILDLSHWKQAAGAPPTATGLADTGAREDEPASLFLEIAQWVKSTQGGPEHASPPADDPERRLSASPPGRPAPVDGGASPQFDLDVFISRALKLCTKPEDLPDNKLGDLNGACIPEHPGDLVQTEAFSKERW
Sequence of kinases (KINOMEscan panel) (Homo sapiens, UniProt Q13188) (Q13188 whole entry): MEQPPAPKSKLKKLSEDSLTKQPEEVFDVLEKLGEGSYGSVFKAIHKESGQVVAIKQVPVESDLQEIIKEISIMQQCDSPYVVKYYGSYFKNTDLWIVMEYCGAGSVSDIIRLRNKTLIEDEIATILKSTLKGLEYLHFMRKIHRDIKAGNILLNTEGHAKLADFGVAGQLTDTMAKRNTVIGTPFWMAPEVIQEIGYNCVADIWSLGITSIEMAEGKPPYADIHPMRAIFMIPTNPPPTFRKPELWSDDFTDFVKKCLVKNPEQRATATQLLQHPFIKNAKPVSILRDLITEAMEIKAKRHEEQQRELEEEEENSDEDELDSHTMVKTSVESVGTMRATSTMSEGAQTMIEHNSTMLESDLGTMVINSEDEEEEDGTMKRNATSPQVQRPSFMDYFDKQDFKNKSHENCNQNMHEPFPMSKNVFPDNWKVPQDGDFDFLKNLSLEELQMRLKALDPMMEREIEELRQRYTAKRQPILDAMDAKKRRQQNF
Sequence of kinases (KINOMEscan panel) (Homo sapiens, UniProt Q9Y6E0) (Q9Y6E0 whole entry): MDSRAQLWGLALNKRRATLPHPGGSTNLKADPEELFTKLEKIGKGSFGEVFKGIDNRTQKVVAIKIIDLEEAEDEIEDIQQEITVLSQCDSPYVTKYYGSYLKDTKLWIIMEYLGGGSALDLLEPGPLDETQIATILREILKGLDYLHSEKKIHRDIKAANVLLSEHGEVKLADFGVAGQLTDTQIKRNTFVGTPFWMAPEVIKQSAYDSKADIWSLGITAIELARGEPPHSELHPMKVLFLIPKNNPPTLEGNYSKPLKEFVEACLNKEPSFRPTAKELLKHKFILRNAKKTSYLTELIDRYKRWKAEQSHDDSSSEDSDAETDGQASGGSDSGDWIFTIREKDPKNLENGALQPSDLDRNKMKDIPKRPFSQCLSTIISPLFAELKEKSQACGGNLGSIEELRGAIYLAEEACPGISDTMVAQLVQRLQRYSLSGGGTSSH

Cc1cccc(-c2nc(N(C)c3ccc4ncsc4c3)c3ccccc3n2)n1 [NK-161]
KINOMEscan MATK/CTK [1]: 8
KINOMEscan FYN/SLK [2]: 4
KINOMEscan NDR1/STK38 [3]: 42
KINOMEscan STK17A/DRAK1 [4]: 0
KINOMEscan MAPK4/ERK4 [5]: 6
KINOMEscan SBK3/SgK110 [6]: 0
KINOMEscan MAPK6/ERK3 [7]: 14
KINOMEscan MAPK3/ERK1 [8]: 14
KINOMEscan SIK3/QSK [9]: 0
KINOMEscan STK3/MST2 [10]: 0
KINOMEscan MAP3K13/LZK [11]: 22
KINOMEscan MYLK/MLCK [12]: 8
KINOMEscan STK32C/YANK3 [13]: 18
KINOMEscan MAPK7/ERK5 [14]: 0
KINOMEscan PTK2/FAK [15]: 0
KINOMEscan RPS6KA1/RSK1(Kin.Dom.1-N-terminal) [16]: 9
KINOMEscan RPS6KA1/RSK1(Kin.Dom.2-C-terminal) [16]: 34
KINOMEscan MAP3K12/DLK [17]: 0
KINOMEscan STK11/LKB1 [18]: 0
KINOMEscan RPS6KB1/S6K1 [19]: 0
KINOMEscan NUAK2/SNARK [20]: 15
KINOMEscan MAP3K20/ZAK [21]: 0
KINOMEscan STK32B/YANK2 [22]: 17
KINOMEscan STK24/MST3 [23]: 0
KINOMEscan NUAK1/ARK5 [24]: 0
KINOMEscan PNCK/CAMK1B [25]: 0
KINOMEscan NIM1K/NIM1 [26]: 12
KINOMEscan MAP3K5/ASK1 [27]: 0
KINOMEscan PTK6/BRK [28]: 0
KINOMEscan MAP2K6/MEK6 [29]: 12
KINOMEscan KDR/VEGFR2 [30]: 4
KINOMEscan MAP2K2/MEK2 [31]: 27
KINOMEscan SLTM/MET [32]: 11
KINOMEscan STK25/YSK1 [33]: 2
KINOMEscan RPS6KA4(Kin.Dom.1-N-terminal) ([34]; RPS6KA4(Kin.Dom.1-N-terminal)): 0
KINOMEscan RPS6KA4(Kin.Dom.2-C-terminal) ([34]; RPS6KA4(Kin.Dom.2-C-terminal)): 0
KINOMEscan MAP2K3/MEK3 [35]: 0
KINOMEscan MAP4K1/HPK1 [36]: 0
KINOMEscan PKN1/PAK1 [37]: 0
KINOMEscan PTK2B/PYK2 [38]: 9
KINOMEscan STK4/MST1 [39]: 17
KINOMEscan MAPK15/ERK8 [40]: 0
KINOMEscan MAPK1/ERK2 [41]: 6
